In patent US5298494A, “Monosaccharides having anti-proliferation and anti-inflammatory activity, compositions and uses thereof” (Greenwich Pharmaceuticals Incorporated, priority 1993, dated 1994):

Assays:
[1] = tested on: T cell proliferation in mouse spleen cell mixed lymphocyte cultures; experiment: Mixed Lymphocyte Reaction (MLR) assay; assay type: cell-based, mouse (Balb/c responder, C57B1/6 stimulator)
Outline: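 Balb/c responder spleen cells (2.5×10^5) co-cultured with mitomycin C-treated C57Bl/6 stimulators (5×10^5) for 5 days at 37 C with compound dilutions of 3–300 uM or DMSO. Proliferation read by MTT (OD 570-650 nm). Allogeneic minus syngeneic means were expressed as % change from vehicle control.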

[2] = tested on: Interleukin 1 (IL-1) production by peritoneal macrophages; experiment: IL-1 Assay: production of interleukin-1 by peritoneal macrophages (thymocyte bioassay); assay type: cell-based, mouse (C57B1/6); parameters: inhibition: dose or concentration left out as unconfirmed
Text: Interleukin 1 (IL-1) is a potent immunomodulatory cytokine that has a broad range of pro-inflammatory activities. IL-1 is known to be produced by activated accessory cells such as macrophages. Accessory cell production of IL-1 results in the activation and proliferation of T and B lymphocytes. Therefore, by inhibiting macrophage activation and production of IL-1, the activation and proliferation of the cellular effectors of inflammation can be modulated. Compounds of the invention were screened for inhibitory activity in a classical IL-1 assay. Six to 8 week old male C57B1/6 mice were purchased from Harlan Sprague Dawley. Peritoneal macrophages were elicited by the administration to mice of a single intraperitoneal injection of 0.2 ml of complete Freund's adjuvant. After 48 hours, elicited macrophages were removed from the mice by lavage with the use of Hank's balanced salt solution. […] To the macrophage cultures were added various doses of the compounds of the invention and 10 ug/ml of the macrophage activator lipopolysaccharide (to stimulate IL-1 production). Control cultures consisted of macrophages, lipopolysaccharide and culture medium containing various doses of DMSO only. […] The amount of IL-1 produced in the individual wells was determined in a bioassay for IL-1. This involved the removal of thymuses from mice less than 8 weeks of age. Thymocytes were isolated by passing each thymus through a stainless steel mesh screen. […] After 18 hours cells were harvested and radioactive incorporation (as a measure of cell proliferation) was quantitated in a liquid scintillation counter. The students t test was used to determine the significance of the difference between experimental and control values.

CCCCC/C=C/COC[C@H]1O[C@@]2(OC)COC(C)(C)O[C@H]2[C@@H]1OC/C=C/CCCCC [Ie, methyl 1,3-O-isopropylidene-4,6-di-O-(trans,2-octenyl)-α-D-fructofuranoside]
Mean O.D. Allogenic ([1]; 3 um): 0.341 O.D.
Mean O.D. Syngeneic ([1]; 3 um): 0.133 O.D.
Mean O.D. Allogenic ([1]; 10 um): 0.318 O.D.
Mean O.D. Syngeneic ([1]; 10 um): 0.130 O.D.
Mean O.D. Allogenic ([1]; 30 um): 0.266 O.D.
Mean O.D. Syngeneic ([1]; 30 um): 0.178 O.D.
Mean O.D. Allogenic ([1]; 100 um): 0.216 O.D.
Mean O.D. Syngeneic ([1]; 100 um): 0.146 O.D.
Mean O.D. Allogenic ([1]; 300 um): 0.152 O.D.
Mean O.D. Syngeneic ([1]; 300 um): 0.082 O.D.
inhibition at 3 µM ([1]; Mus musculus, Lymphocyte, 3 um, read-out: % Change From Control, MLR): -8%
inhibition at 10 µM ([1]; Mus musculus, Lymphocyte, 10 um, read-out: % Change From Control, MLR): 2%
inhibition at 30 µM ([1]; Mus musculus, Lymphocyte, 30 um, read-out: % Change From Control, MLR): 54%
inhibition at 100 µM ([1]; Mus musculus, Lymphocyte, 100 um, read-out: % Change From Control, MLR): 64%
inhibition at 300 µM ([1]; Mus musculus, Lymphocyte, 300 um, read-out: % Change From Control, MLR): 64%
^3 H-Thymidine uptake by thymocytes ([2]; 0.001 ug/ml): 12,713 ± 866 cpm
^3 H-Thymidine uptake by thymocytes ([2]; 0.01 ug/ml): 12,040 cpm
^3 H-Thymidine uptake by thymocytes ([2]; 0.1 ug/ml): 11,047 ± 702 cpm
^3 H-Thymidine uptake by thymocytes ([2]; 1 ug/ml): 9,710 ± 1,323 cpm
^3 H-Thymidine uptake by thymocytes ([2]; 2.5 ug/ml): 7,000 ± 686 cpm
^3 H-Thymidine uptake by thymocytes ([2]; 10 ug/ml): 6,100 ± 775 cpm
^3 H-Thymidine uptake by thymocytes ([2]; 25 ug/ml): 5,300 ± 1,405 cpm
^3 H-Thymidine uptake by thymocytes ([2]; 100 ug/ml): 4,300 ± 1,100 cpm
inhibition at 0.001 µg/mL ([2]; Mus musculus, Peritoneal macrophage, 0.001 ug/ml, read-out: % effect on IL-1 production (thymidine uptake by thymocytes)): -17%
inhibition at 0.01 µg/mL ([2]; Mus musculus, Peritoneal macrophage, 0.01 ug/ml, read-out: % effect on IL-1 production (thymidine uptake by thymocytes)): -11%
inhibition at 0.1 µg/mL ([2]; Mus musculus, Peritoneal macrophage, 0.1 ug/ml, read-out: % effect on IL-1 production (thymidine uptake by thymocytes)): 1%
inhibition at 2.5 µg/mL ([2]; Mus musculus, Peritoneal macrophage, 2.5 ug/ml, read-out: % effect on IL-1 production (thymidine uptake by thymocytes)): 30%
inhibition at 10 µg/mL ([2]; Mus musculus, Peritoneal macrophage, 10 ug/ml, read-out: % effect on IL-1 production (thymidine uptake by thymocytes)): 40%
inhibition at 25 µg/mL ([2]; Mus musculus, Peritoneal macrophage, 25 ug/ml, read-out: % effect on IL-1 production (thymidine uptake by thymocytes)): 40%
inhibition at 100 µg/mL ([2]; Mus musculus, Peritoneal macrophage, 100 ug/ml, read-out: % effect on IL-1 production (thymidine uptake by thymocytes)): 51%
inhibition ([2]; Mus musculus, Peritoneal macrophage, read-out: % effect on IL-1 production (thymidine uptake by thymocytes)): 12%
